Read-outs that look alike come from different tables or passages of the source.
Experiments:
[1] = system: Hela; assay: Cell toxicity panel, viability (luminescence); format: cell-based, human; conditions: Readout: Luminescence, read-out: IC50 Viability Cells, Cell line: Hela
Experimental: (§1) To further establish the safety and cell toxicity of compounds according to this invention, their IC50 in killing a broad panel of human cell lines (including both cancerous and non-cancerous) cell lines was determined, and their cell toxicity was tested.

[2] = system: HT29; assay: Cell toxicity panel, viability (luminescence); format: cell-based, human; conditions: Readout: Luminescence, read-out: IC50 Viability Cells, Cell line: HT29
Experimental: as §1

[3] = system: PC3; assay: Cell toxicity panel, viability (luminescence); format: cell-based, human; conditions: Readout: Luminescence, read-out: IC50 Viability Cells, Cell line: PC3
Experimental: as §1

[4] = system: HCT116; assay: Cell toxicity panel, viability (luminescence); format: cell-based, human; conditions: Readout: Luminescence, read-out: IC50 Viability Cells, Cell line: HCT116
Experimental: as §1

[5] = system: Colo205; assay: Cell toxicity panel, viability (luminescence); format: cell-based, human; conditions: Readout: Luminescence, read-out: IC50 Viability Cells, Cell line: Colo205
Experimental: as §1

[6] = system: H23; assay: Cell toxicity panel, viability (luminescence); format: cell-based, human; conditions: Readout: Luminescence, read-out: IC50 Viability Cells, Cell line: H23
Experimental: as §1

[7] = biological target: Culex quinquefasciatus CBE (Culex quinquefasciatus, UniProt Q23734); assay: Inhibition of insect CBEs, 4-NPB substrate; format: biochemical; conditions: n=3
Experimental: (§2) Assays were performed with 4-NPB as the substrate.

[8] = biological target: Aedes aegypti CBE; assay: Inhibition of insect CBEs, 4-NPB substrate; format: biochemical; conditions: n=3
Experimental: as §2

[9] = biological target: Anopheles gambiae CBE; assay: Inhibition of insect CBEs, 4-NPB substrate; format: biochemical; conditions: n=3
Experimental: as §2

[10] = system: Lucilia cuprina larvae, laboratory drug-susceptible strain LS; assay: Lucilia cuprina larval bioassay (pupation rate), laboratory strain; format: in vivo; conditions: for synergism with diazinon (in words): susceptible strain
Experimental: Inhibitor efficacy was determined by treating larvae with diazinon over a range of concentrations, in the presence or absence of the compounds at constant concentrations, and comparing pupation rates.
Two strains of L. cuprina were used: 1) a laboratory reference drug-susceptible strain, LS, derived from collections in the Australian Capital Territory over 40 years ago, with no history of exposure to insecticides; and 2) a field-collected strain, Tara, resistant to diazinon and diflubenzuron (Levot, G. W. & Sales, N. New high level resistance to diflubenzuron detected in the Australian sheep blowfly, Lucilia cuprina (Wiedemann) (Diptera: Calliphoridae). Gen. Appl. Entomol. 31, 43-46 (2002)). The LcαE7 gene was sequenced in each of the strains. Briefly, genomic DNA was prepared from 20 adult female flies from each strain using the DNeasy Blood and Tissue kit (Qiagen). PCR was performed with primers specific to the LcαE7 gene, and the product was cloned into a pGEM-T EASY vector (Promega). Eight clones of the susceptible strain and 10 clones of the resistant strain were sequenced using M13 forward and reverse primers.
Each experiment utilized 50 larvae at each diazinon/malathion concentration. Experiments were replicated three times for diazinon, and twice for malathion. The insecticidal effects were defined by measuring the pupation rate. […] Compounds were also without diazinon or malathion at 1 mg per assay.

[11] = biological target: T1, PSMB9 (Homo sapiens, UniProt P28065); assay: Protease selectivity panel; format: biochemical; conditions: 100 μM compound, n = 2
T1 construct: purchased BOSTON-BIOCHEM
Experimental: (§3) Test compounds were dissolved in 100% DMSO to make 10 mM stock. Final compound concentration in assay is […]. Compounds were tested in duplicate wells at single concentration and the final concentration of DMSO in all assays was kept at 1%. Five reference compounds, AEBSF, Carfilzomib, Granzyme B Inhibitor II, Dec-RVKR-CMK, and Teneligliptin hydrobromide, were tested in an identical manner with 8 concentration points at 5× dilutions.

[12] = biological target: T2, GranzymeB (Homo sapiens, UniProt P10144); assay: Protease selectivity panel; format: biochemical; conditions: 100 μM compound, n = 2
T2 construct: purchased ENZO
Experimental: as §3

[13] = biological target: T3, Plasma-Kallikrein (Homo sapiens, UniProt P03952); assay: Protease selectivity panel; format: biochemical; conditions: 100 μM compound, n = 2
T3 construct: purchased R&D Systems
Experimental: as §3

[14] = biological target: bacterial AmpC β-lactamase (Escherichia coli, UniProt P00811); assay: AmpC β-lactamase selectivity; format: biochemical
Experimental: To characterize the selectivity of boronic acids 1 to 5, they were assayed against AChE, the target of OP and carbamate insecticides (Table 1) as well as trypsin and bacterial AmpC β-lactamase. […] The toxicity of the hits against two human cell lines was further assessed.
To characterize the selectivity of boronic acids 1 to 5, they were assayed against the target of OP insecticides, AChE, as well as trypsin and bacterial AmpC β-lactamase (Table 1). AChE and αE7 are homologous, sharing the α/β-hydrolase fold and the same catalytic machinery, however the topology of their binding pockets is dissimilar (Jackson, C. J. et al. Structure and function of an insect α-carboxylesterase (αEsterase7) associated with insecticide resistance. Proc. Natl. Acad. Sci. U.S.A. 110, 10177-82 (2013) and Correy, G. J. et al. Mapping the Accessible Conformational Landscape of an Insect Carboxylesterase Using Conformational Ensemble Analysis and Kinetic Crystallography. Structure 24, 1-11 (2016).). Both trypsin and AmpC β-lactamase contain an activated serine nucleophile and oxyanion hole, however trypsin contains a serine-histidine-aspartic acid (Hedstrom, L. Serine protease mechanism and specificity. Chem. Rev. 102, 4501-4523 (2002).) while AmpC β-lactamase contains a serine-tyrosine-lysine catalytic triad (Dubus, A., et al. The roles of residues Tyr150, Glu272, and His314 in class C β-lactamases. Proteins Struct. Funct. Genet. 25, 473-485 (1996).).

Compound	IC50 ([1]; Homo sapiens, HeLa) [µM]	IC50 ([2]; Homo sapiens, HT-29) [µM]	IC50 ([3]; Homo sapiens, PC-3) [µM]	IC50 ([4]; Homo sapiens, HCT-116) [µM]	IC50 ([5]; Homo sapiens, COLO 205) [µM]	IC50 ([6]; Homo sapiens, NCI-H23) [µM]	Ki [7] [µM]	Ki [8] [µM]	Ki [9] [µM]	synergism with diazinon (in words) [10]	inhibition at 100 µM [11] [%]	inhibition at 100 µM [12] [%]	inhibition at 100 µM [13] [%]	Ki [14] [µM]	further results
OB(O)c1cc(Br)cc(N2CCCC2)c1 [Compound 3]	8.1	> 99.8	> 99.8	> 99.8	> 99.8	> 99.8	4.7	9.9	0.79	synergism was observed	12	3	6	0.06	–
OB(O)c1ccc2ccccc2c1 [Compound 4]	32.7	> 99.8	> 99.8	> 99.8	> 99.8	–	–	–	–	–	–	–	–	0.104	–
OB(O)c1cc(Br)cc(OCc2ccccc2)c1 [Compound 3.9]	2.1	72.8	> 99.8	> 99.8	> 99.8	99.3	–	–	–	synergism was observed	50	17	41	–	–
OB(O)c1cc(Br)cc(N2CCOCC2)c1 [Compound 3.1]	–	–	–	–	–	–	–	–	–	–	–	–	–	–	IC50 [1]: > 99.8 µM; IC50 [2]: > 99.8 µM; IC50 [3]: > 99.8 µM; IC50 [4]: > 99.8 µM; IC50 [5]: > 99.8 µM; IC50 [6]: > 99.8 µM; reduction of diazinon EC50 compared to a diazinon only control ([10]; susceptible laboratory strain): 5.7 fold
Cc1ccc(B(O)O)cc1OCc1ccccc1 [Compound 2]	4	34.1	49.1	62.8	91.5	> 99.8	2.4	3.1	0.17	No synergism was observed	–	–	–	0.38	–
Cc1ccc(B(O)O)cc1Br [Compound 1]	37.9	> 99.8	> 99.8	> 99.8	> 99.8	> 99.8	–	–	–	–	–	–	–	0.216	–
OB(O)c1cc(Br)cc(Oc2ccccc2)c1 [Compound 3.10, 3-Bromo-5-phenoxyfenylboronic acid]	–	–	–	–	–	–	–	–	–	synergism was observed	15	11	64	–	reduction of malathion EC50 compared to a malathion only control ([10]; laboratory strain): 16 fold
OB(O)c1ccc(OCc2ccccc2F)c(Cl)c1 [Compound 5, 3-Chloro-4(2′-fluorobenzyloxy) phenylboronic acid]	4.8	62.4	83.7	88.5	79.4	92.7	0.42	40	0.03	No synergism was observed	–	–	–	0.22	–
CC(C)Oc1cc(Br)cc(B(O)O)c1 [Compound 3.7, 3-Bromo-5-isopropoxyphenylboronic acid]	–	–	–	–	–	–	0.9	2.6	0.33	–	–	–	–	–	–

From patent US20190327974A1, “SYNERGISTS FOR IMPROVED PESTICIDES” (priority 2017, published 2019)
